Source: patent US20250195521A1 (Revolution Medicines, Inc., priority 2020, published 2025)
Like-named read-outs stand apart in the source and are kept apart here.

Key:
Type in all cases: biochemical
[1] = biological target: KRAS G12S binding to BRAF RBD (Homo sapiens (Human), UniProt P01116+P62937, G12S); test: Ras-Raf disruption/FRET/MOA assay, KRAS G12S
How it was run: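 First, test compounds in a 10-point 3-fold series (30 μM final top) were incubated for 3 hours at 25° C with nucleotide-loaded Ras, cyclophilin A and a BRAF RBD construct. Next, Eu anti-His and allophycocyanin anti-GST detection reagents were added for 1.5 hours. Finally, IC50s were derived from loss of TR-FRET signal against DMSO.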

[2] = biological target: KRAS G12V binding to BRAF RBD (Homo sapiens (Human), UniProt P01116+P62937, G12V); test: Ras-Raf disruption/FRET/MOA assay, KRAS G12V
Source text: (§1) Note—The following protocol describes a procedure for monitoring disruption of K-Ras G12C(GMP-PNP) binding to BRAF^RBD by a compound of the invention. This protocol may also be executed substituting other Ras proteins or nucleotides.
(§2) The purpose of this biochemical assay was to measure the ability of test compounds to facilitate ternary complex formation between a nucleotide-loaded K-Ras isoform and Cyclophilin A; the resulting ternary complex disrupts binding to a BRAF^RBD construct, inhibiting K-Ras signaling through a RAF effector. Data is reported as IC50 values.
(§3) Compound was present in plate wells as a 10-point 3-fold dilution series starting at a final concentration of 30 μM. After incubation at 25° C. for 3 hours, a mixture of Anti-His Eu—W1024 and anti-GST allophycocyanin was then added to assay sample wells at final concentrations of 10 nM and 50 nM, respectively, and the reaction incubated for an additional 1.5 hours. […] Compounds that facilitate disruption of a K-Ras: RAF complex were identified as those eliciting a decrease in the TR-FRET ratio relative to DMSO control wells.

[3] = biological target: KRAS G13C binding to BRAF RBD (Homo sapiens (Human), UniProt P01116+P62937, G13C); test: Ras-Raf disruption/FRET/MOA assay, KRAS G13C
Source text: Disruption of B-Raf Ras-binding Domain (BRAF^RBD) Interaction with K-Ras by Compounds of the Invention (also called a FRET assay or an MOA assay)
as §1, §2
as §3, with “In assay buffer containing 25 mM HEPES pH 7.3, 0.002% Tween20, 0.1% BSA, 100 mM NaCl and 5 mM MgCl2, tagless Cyclophilin A, His6-K-Ras-GMPPNP, and GST-BRAF^RBD were combined in a 384-well assay plate at final concentrations of 25 μM, 12.5 nM and 50 nM, respectively. Compound was” for “Compound was”

KRAS G12S binding to BRAF RBD, sequence (P01116 other isoform, or with tags, fused parts or gaps G12S): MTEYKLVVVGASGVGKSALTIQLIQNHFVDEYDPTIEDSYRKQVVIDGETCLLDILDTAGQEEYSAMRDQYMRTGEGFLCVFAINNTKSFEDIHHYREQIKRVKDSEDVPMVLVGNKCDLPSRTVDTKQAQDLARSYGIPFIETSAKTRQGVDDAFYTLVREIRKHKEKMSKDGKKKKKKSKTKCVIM
KRAS G12S binding to BRAF RBD, sequence (P62937 whole entry): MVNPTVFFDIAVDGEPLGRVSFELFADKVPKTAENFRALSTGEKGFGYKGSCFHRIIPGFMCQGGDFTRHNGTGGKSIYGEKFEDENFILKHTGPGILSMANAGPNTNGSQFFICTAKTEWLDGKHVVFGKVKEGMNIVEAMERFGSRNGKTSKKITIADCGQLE
KRAS G12V binding to BRAF RBD, sequence (P01116 other isoform, or with tags, fused parts or gaps G12V): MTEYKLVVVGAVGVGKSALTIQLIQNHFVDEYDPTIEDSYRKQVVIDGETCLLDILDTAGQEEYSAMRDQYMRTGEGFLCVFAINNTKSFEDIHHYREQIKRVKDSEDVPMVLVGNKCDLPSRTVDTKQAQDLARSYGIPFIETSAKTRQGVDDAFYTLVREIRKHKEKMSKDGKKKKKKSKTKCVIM
KRAS G12V binding to BRAF RBD, sequence (P62937 whole entry): as the sequence (P62937 whole entry) above
KRAS G13C binding to BRAF RBD, sequence (P01116 other isoform, or with tags, fused parts or gaps G13C): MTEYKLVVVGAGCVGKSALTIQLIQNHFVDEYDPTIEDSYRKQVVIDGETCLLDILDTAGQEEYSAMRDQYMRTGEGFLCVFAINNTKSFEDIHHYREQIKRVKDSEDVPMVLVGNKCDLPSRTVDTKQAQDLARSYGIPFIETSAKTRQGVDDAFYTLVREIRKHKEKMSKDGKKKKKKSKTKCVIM
KRAS G13C binding to BRAF RBD, sequence (P62937 whole entry, the tested form may be a part): as the sequence (P62937 whole entry) above

Row | Compound | IC50 [1] [µM] | IC50 [2] [µM] | IC50 [3] [µM] | IC50 ([2]; read-out: KRAS G12V FRET IC50) [µM]
1 | CCn1c(-c2cccnc2[C@H](C)OC)c2c3cc(ccc31)-c1csc(n1)C[C@H](NC(=O)[C@H](C(C)C)N(C)C(=O)C1COC1)C(=O)N1CCC[C@H](N1)C(=O)OCC(C)(C)C2 [Compound A245] |  | 0.01 to 0.1 |  | 
2 | CCn1c(-c2cccnc2[C@H](C)OC)c2c3cc(ccc31)-c1cc(O)cc(c1)C[C@H](NC(=O)[C@H](C(C)C)N(C)C(=O)C1CC(=O)N(C3CC3)C1)C(=O)N1CCC[C@H](N1)C(=O)OCC(C)(C)C2 (some centres unmarked) [Compound A252] |  |  | < 0.01 | 
3 | CCn1c(-c2cccnc2[C@H](C)OC)c2c3cc(ccc31)-c1csc(n1)C[C@H](NC(=O)[C@H](C(C)C)N(C)C(=O)N(C)C1(C)COC1)C(=O)N1CCC[C@H](N1)C(=O)OCC(C)(C)C2 [Compound A527] | 0.01 to 0.1 |  |  | 0.01 to 0.1
4 | CCn1c(-c2cccnc2[C@H](C)OC)c2c3cc(ccc31)-c1csc(n1)C[C@H](NC(=O)[C@H](C(C)C)N(C)C(=O)N1CCN3C(=O)CN(C)C[C@H]3C1)C(=O)N1CCC[C@H](N1)C(=O)OCC(C)(C)C2 [Compound A537] | 0.01 to 0.1 |  |  | 0.01 to 0.1
5 | CCn1c(-c2cccnc2[C@H](C)OC)c2c3cc(ccc31)-c1csc(n1)C[C@H](NC(=O)[C@H](C(C)C)N(C)C(=O)N1CCN(C(=O)[C@@H]3CCCN3C)CC1)C(=O)N1CCC[C@H](N1)C(=O)OCC(C)(C)C2 [Compound A596] | 0.01 to 0.1 |  |  | 
6 | CCn1c(-c2cccnc2[C@H](C)OC)c2c3cc(ccc31)-c1csc(n1)[C@@H](OC)[C@H](NC(=O)[C@H](C(C)C)N(C)C(=O)N(C)C)C(=O)N1CCC[C@H](N1)C(=O)OCC(C)(C)C2 [Compound A598, (2S)—N-((6^3S,3S,4S,Z)-1^1-ethyl-3-methoxy-1^2-(2-((S)-1-methoxyethyl)pyridin-3-yl)-10,10-dimethyl-5,7-dioxo-6^1,6^2,6^3,6^4,6^5,6^6-hexahydro-1^1H-8-oxa-2 (4,2)-thiazola-1 (5,3)-indola-6 (1,3)-pyridazinacycloundecaphane-4-yl)-3-methyl-2-(1,3,3-trimethylureido) butanamide] | 0.01 to 0.1 |  |  | 
7 | CCn1c(-c2cccnc2[C@H](C)OC)c2c3cc(ccc31)-c1csc(n1)C[C@H](NC(=O)[C@H](C(C)C)N(C)C(=O)N1CC3(CCN(C)C3)C1)C(=O)N1CCC[C@H](N1)C(=O)OCC(C)(C)C2 [Compound A602] | 0.01 to 0.1 |  |  | 0.01 to 0.1

Other lines, results leading:

Row | IC50 [1] [µM] | IC50 [2] [µM] | IC50 [3] [µM] | IC50 ([2]; read-out: KRAS G12V FRET IC50) [µM] | Compound
8 | 0.01 to 0.1 |  |  |  | CCn1c(-c2cccnc2[C@H](C)OC)c2c3cc(ccc31)-c1cc(O)cc(c1)C[C@H](NC(=O)C1CCC3C1C3(F)F)C(=O)N1CCC[C@H](N1)C(=O)OCC(C)(C)C2 (some centres unmarked) [Compound A181]
9 | 0.01 to 0.1 |  | < 0.01 |  | CCn1c(-c2cnccc2COC)c2c3cc(ccc31)-c1cc(O)cc(c1)C[C@H](NC(=O)[C@H](C(C)C)N(C)C(=O)N1CCNCC1)C(=O)N1CCC[C@H](N1)C(=O)OCC(C)(C)C2 [Compound A255]
10 | 0.01 to 0.1 |  |  |  | CCn1c(-c2cccnc2[C@H](C)OC)c2c3cc(ccc31)-c1cc(O)cc(c1)C[C@H](NC(=O)[C@@H](C(C)C)N(C)C(C)=O)C(=O)N1CCC[C@H](N1)C(=O)OCC(C)(C)C2 [Compound A256]
11 | 0.01 to 0.1 |  | < 0.01 | 0.01 to 0.1 | CCn1c(-c2cccnc2[C@H](C)OC)c2c3cc(ccc31)-c1csc(n1)C[C@H](NC(=O)[C@H](C(C)C)N(C)C(=O)N1C[C@@H](C)N(C)C[C@@H]1C)C(=O)N1CCC[C@H](N1)C(=O)OCC(C)(C)C2 [Compound A292]
12 | 0.01 to 0.1 |  |  | 0.01 to 0.1 | CCn1c(-c2cccnc2[C@H](C)OC)c2c3cc(ccc31)-c1csc(n1)C[C@H](NC(=O)[C@H](C(C)C)N(C)C(=O)N1CC(N3CCC3)C1)C(=O)N1CCC[C@H](N1)C(=O)OCC(C)(C)C2 [Compound A295]
13 | 0.01 to 0.1 |  |  | 0.01 to 0.1 | CCn1c(-c2cccnc2[C@H](C)OC)c2c3cc(ccc31)-c1csc(n1)C[C@H](NC(=O)[C@H](C(C)C)N(C)C(=O)N1C[C@H](C)N(C)C[C@H]1C)C(=O)N1CCC[C@H](N1)C(=O)OCC(C)(C)C2 [Compound A300]
14 | 0.01 to 0.1 |  | < 0.01 | 0.01 to 0.1 | CCn1c(-c2cccnc2[C@H](C)OC)c2c3cc(ccc31)-c1csc(n1)C[C@H](NC(=O)[C@H](C(C)C)N(C)C(=O)N1CC(N3CCOCC3)C1)C(=O)N1CCC[C@H](N1)C(=O)OCC(C)(C)C2 [Compound A338]
15 | 0.01 to 0.1 |  |  |  | CCn1c(-c2cccnc2[C@H](C)OC)c2c3cc(ccc31)-c1csc(n1)C[C@H](NC(=O)C1CC1)C(=O)N1CCC[C@H](N1)C(=O)OCC(C)(C)C2 [Compound A367]
16 | 0.01 to 0.1 |  |  | 0.01 to 0.1 | CCn1c(-c2cccnc2[C@H](C)OC)c2c3cc(ccc31)-c1csc(n1)C[C@H](NC(=O)[C@H](C(C)C)N(C)C(=O)N1CC[C@]3(CCNC3=O)C1)C(=O)N1CCC[C@H](N1)C(=O)OCC(C)(C)C2 [Compound A479]
17 | 0.01 to 0.1 |  |  | 0.01 to 0.1 | CCn1c(-c2cccnc2[C@H](C)OC)c2c3cc(ccc31)-c1csc(n1)C[C@H](NC(=O)[C@H](C(C)C)N(C)C(=O)N1CCC[C@H](N(C)C)CC1)C(=O)N1CCC[C@H](N1)C(=O)OCC(C)(C)C2 [Compound A493]
